Measurements as given in publication PMC4503722, “Novel Phenotypic Outcomes Identified for a Public Collection of Approved Drugs from a Publicly Accessible Panel of Assays” (PLoS ONE, 2015).
Where two headings read alike, the source gives them in different places.

What was measured:
Test in all cases: cells
Assay type in all cases: cell-based
[1] = tested on: HCT116; settings: assay number 25, basal; for IC50: read-out: Basal_Viability ATP HCT116 summarized IC50
[2] = tested on: Colo320; settings: assay number 27; for IC50: read-out: Basal_Viability ATP Colo 320 summarized IC50
[3] = tested on: HCT116 cells treated with a GSK3β inhibitor; settings: assay number 26, GSK3b inhibitor pretreated; for IC50: read-out: GSK3b inh pretreated_Viability ATP HCT116 summarized IC50
[4] = tested on: HT-29; settings: assay number 28; for IC50: read-out: Basal_Viability ATP HT-29 summarized IC50
[5] = tested on: HeLa cells;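 for Hela CellCycMod PI 4N summarized IC50: value tracks stimulation of 4N DNA content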
[6] = tested on: SNU-C1; settings: assay number 30; for IC50: read-out: Basal_Viability ATP SNU-C1 summarized IC50
[7] = tested on: RKO; settings: assay number 29; for IC50: read-out: Basal_Viability ATP RKO summarized IC50
[8] = tested on: DLD-1; settings: assay number 23; for IC50: read-out: Basal_Viability ATP DLD-1 summarized IC50
[9] = tested on: SW480; settings: assay number 24; for IC50: read-out: Basal_Viability ATP SW480 summarized IC50
[10] = assay number 14, 2N, read-out: Hela CellCycMod PI 2N summarized IC50
[11] = assay number 15, S phase, read-out: Hela CellCycMod PI S Phase summarized IC50
[12] = assay number 16, 4N, read-out: Hela CellCycMod PI 4N summarized IC50
[13] = assay number 17, MI, read-out: Hela CellCycMod PI MI summarized IC50
[14] = assay number 18, cell number, read-out: Hela CellCycMod PI Cell Number summarized IC50

Row | SMILES | IC50 [1] [µM] | IC50 ([2]; basal) [µM] | IC50 [3] [µM] | IC50 ([4]; basal) [µM] | IC50 [5, 10] [µM] | IC50 [5, 11] [µM] | IC50 [5, 12] [µM] | IC50 [5, 13] [µM] | IC50 ([6]; basal) [µM] | IC50 ([7]; basal) [µM] | IC50 ([8]; basal) [µM] | IC50 ([9]; basal) [µM] | Basal_Viability ATP HCT116 IC50/EC50 [1] [µM] | Basal_Viability ATP Colo 320 IC50/EC50 ([2]; basal) [µM] | GSK3b inh pretreated_Viability ATP HCT116 IC50/EC50 [3] [µM] | Basal_Viability ATP HT-29 IC50/EC50 ([4]; basal) [µM] | Basal_Viability ATP SNU-C1 IC50/EC50 ([6]; basal) [µM] | Basal_Viability ATP RKO IC50/EC50 ([7]; basal) [µM] | Basal_Viability ATP DLD-1 IC50/EC50 ([8]; basal) [µM] | Basal_Viability ATP SW480 IC50/EC50 ([9]; basal) [µM] | further results
1 | O=C(O)CCc1nc2ccccc2[nH]1 [NCGC00013414-04] | > 20 | > 20 | 2.2 | > 20 | > 10 | > 10 | > 10 | > 10 | > 20 | > 20 | 2.42 | > 20 | – | – | – | – | – | – | – | – | IC50 [5, 14]: > 10 µM
2 | O=C(O)CN(CCN(CC(=O)O)CC(=O)O)CCN(CC(=O)O)CC(=O)O [NCGC00015360-08] | > 6.67 | > 20 | 0.896 | > 20 | > 10 | > 10 | > 10 | > 10 | > 20 | 2.96 | > 20 | 3.14 | – | – | – | – | – | – | – | – | IC50 [5, 14]: > 10 µM
3 | CCCCOC(=O)c1ccc(N)cc1 [NCGC00016353-08] | > 20 | > 20 | 5.61 | > 20 | > 10 | > 10 | > 10 | > 10 | > 20 | 0.137 | 4.56 | 0.586 | – | – | – | – | – | – | – | – | IC50 [5, 14]: > 10 µM
4 | CCC(=O)c1ccc(O)cc1 [NCGC00018097-06] | > 20 | > 20 | 6.25 | > 20 | > 10 | > 10 | > 10 | > 10 | > 20 | 7.8 | 6.67 | 4.1 | – | – | – | – | – | – | – | – | IC50 [5, 14]: > 10 µM
5 | CCC(COC(=O)c1cc(OC)c(OC)c(OC)c1)(c1ccccc1)N(C)C.O=C(O)/C=C\C(=O)O (stereo not shown) [NCGC00018269-05] | – | – | – | – | – | – | – | – | – | – | – | – | > 20 | > 20 | 1.615 | > 20 | 2.4514 | 0.1424 | > 20 | > 20 | Hela CellCycMod PI 2N IC50/EC50 ([5]; assay number 14, 2N): > 10 µM; Hela CellCycMod PI S Phase IC50/EC50 ([5]; assay number 15, S phase): > 10 µM; Hela CellCycMod PI 4N IC50/EC50 ([5]; assay number 16, 4N): > 10 µM; Hela CellCycMod PI MI IC50/EC50 ([5]; assay number 17, MI): > 10 µM; Hela CellCycMod PI Cell Number IC50/EC50 ([5]; assay number 18, cell number): > 10 µM
6 | CC[C@H]1CN2CCc3cc(OC)c(OC)cc3[C@@H]2C[C@@H]1C[C@H]1NCCc2cc(OC)c(OC)cc21 [NCGC00024379-16] | – | – | – | – | – | – | – | – | – | – | – | – | 0.06147 | 0.0221 | 0.001 | 0.01634 | 0.00228 | 0.00831 | 0.01158 | 0.001 | Hela CellCycMod PI 2N IC50/EC50 ([5]; assay number 14, 2N): > 10 µM; Hela CellCycMod PI 4N IC50/EC50 ([5]; assay number 16, 4N): > 10 µM; Hela CellCycMod PI MI IC50/EC50 ([5]; assay number 17, MI): 0.9477 µM; Hela CellCycMod PI Cell Number IC50/EC50 ([5]; assay number 18, cell number): 0.03266 µM
7 | CN1CCC(Nc2ncc3ncnc(Nc4ccc(F)c(Cl)c4)c3n2)CC1 [NCGC00161422-04] | – | – | – | – | – | – | – | – | – | – | – | – | > 20 | – | 3.384 | – | – | – | – | – | Basal_Viability ATP Colo 320 IC50/EC50 [2]: 11.6683 µM; Basal_Viability ATP HT-29 IC50/EC50 [4]: 4.003 µM; Hela CellCycMod PI 2N IC50/EC50 ([5]; assay number 14, 2N): > 10 µM; Hela CellCycMod PI 4N IC50/EC50 ([5]; assay number 16, 4N): > 10 µM; Hela CellCycMod PI MI IC50/EC50 ([5]; assay number 17, MI): > 10 µM; Hela CellCycMod PI Cell Number IC50/EC50 ([5]; assay number 18, cell number): > 10 µM; Basal_Viability ATP SNU-C1 IC50/EC50 [6]: 11.9566 µM; Basal_Viability ATP RKO IC50/EC50 [7]: 3.167 µM; Basal_Viability ATP DLD-1 IC50/EC50 [8]: 2.292 µM; Basal_Viability ATP SW480 IC50/EC50 [9]: 2.346 µM
8 | Cl.O=C1[C@H]2CCCC[C@H]2C(=O)N1CCCCN1CCN(c2nsc3ccccc23)CC1 [NCGC00164567-02] | – | – | – | – | – | – | – | – | – | – | – | – | 2.0649 | – | 1.6729 | – | – | – | – | – | Basal_Viability ATP Colo 320 IC50/EC50 [2]: 13.2075 µM; Basal_Viability ATP HT-29 IC50/EC50 [4]: 2.0058 µM; Hela CellCycMod PI 2N IC50/EC50 ([5]; assay number 14, 2N): > 10 µM; Hela CellCycMod PI S Phase IC50/EC50 ([5]; assay number 15, S phase): > 10 µM; Hela CellCycMod PI 4N IC50/EC50 ([5]; assay number 16, 4N): > 10 µM; Hela CellCycMod PI MI IC50/EC50 ([5]; assay number 17, MI): > 10 µM; Hela CellCycMod PI Cell Number IC50/EC50 ([5]; assay number 18, cell number): > 10 µM; Basal_Viability ATP SNU-C1 IC50/EC50 [6]: 9.3713 µM; Basal_Viability ATP RKO IC50/EC50 [7]: 0.5459 µM; Basal_Viability ATP DLD-1 IC50/EC50 [8]: 8.238 µM; Basal_Viability ATP SW480 IC50/EC50 [9]: 5.9082 µM
9 | CCCCCCCCCCCCCCCCC(C(=O)O)C(O)(CC(=O)O)C(=O)O (stereo not shown) [NCGC00167547-02] | – | – | – | – | – | – | – | – | – | – | – | – | 8.6847 | 1.3621 | 4.3382 | 4.0996 | 1.3613 | 3.4822 | 4.2832 | 1.1952 | –
10 | Cc1ccc(C(=O)c2cc(O)c(O)c([N+](=O)[O-])c2)cc1 [NCGC00181767-03] | – | – | – | – | – | – | – | – | – | – | – | – | 2.292 | 2.503 | 0.265 | > 20 | 4.536 | 1.876 | 6.142 | 4.644 | –
11 | O=C(Nc1ccc(Cl)cc1)Nc1ccc(Cl)c(C(F)(F)F)c1 [NCGC00185743-02] | 0.003 | 0.003 | 0.003 | 0.001 | – | – | – | – | 0.009 | 0.003 | 0.027 | 0.009 | – | – | – | – | – | – | – | – | –
12 | CN(C)[C@@H](CCOc1cccc2ccccc12)c1ccccc1 [NCGC00253658-01] | – | – | – | – | – | – | – | – | – | – | – | – | > 20 | – | 9.8615 | – | – | – | – | – | Basal_Viability ATP Colo 320 IC50/EC50 [2]: > 20 µM; Basal_Viability ATP HT-29 IC50/EC50 [4]: > 20 µM; Basal_Viability ATP SNU-C1 IC50/EC50 [6]: 12.8035 µM; Basal_Viability ATP RKO IC50/EC50 [7]: 8.1098 µM; Basal_Viability ATP DLD-1 IC50/EC50 [8]: > 20 µM; Basal_Viability ATP SW480 IC50/EC50 [9]: > 20 µM
13 | Cc1cc2nc3c(=O)[nH]c(=O)nc-3n(C[C@H](O)[C@H](O)[C@H](O)COP(=O)([O-])OP(=O)([O-])OC[C@H]3O[C@@H](n4cnc5c(N)ncnc54)[C@H](O)[C@H]3O)c2cc1C.O.[Na+].[Na+] [NCGC00344578-01] | – | – | – | – | – | – | – | – | – | – | – | – | > 20 | > 20 | > 20 | > 20 | > 20 | > 20 | > 20 | > 20 | –
